# Reference: publication PMC11322525, “Dihydrolipoamide dehydrogenase (DLD) is a novel molecular target of bortezomib” (Cell Death & Disease, 2024)
# Tests used:
# [1] = target: T1, DLD (dihydrolipoamide dehydrogenase) (Homo sapiens, UniProt P09622); assay: microscale thermophoresis; assay type: binding; settings: unmodified bortezomib; His-tag RED-tris-NTA labelled protein; unit not given
# T1 construct: recombinant, customized by DetaiBio; His-tag labelling (RED-tris-NTA) for MST implies His tag
# T1 sequence (P09622 36-509): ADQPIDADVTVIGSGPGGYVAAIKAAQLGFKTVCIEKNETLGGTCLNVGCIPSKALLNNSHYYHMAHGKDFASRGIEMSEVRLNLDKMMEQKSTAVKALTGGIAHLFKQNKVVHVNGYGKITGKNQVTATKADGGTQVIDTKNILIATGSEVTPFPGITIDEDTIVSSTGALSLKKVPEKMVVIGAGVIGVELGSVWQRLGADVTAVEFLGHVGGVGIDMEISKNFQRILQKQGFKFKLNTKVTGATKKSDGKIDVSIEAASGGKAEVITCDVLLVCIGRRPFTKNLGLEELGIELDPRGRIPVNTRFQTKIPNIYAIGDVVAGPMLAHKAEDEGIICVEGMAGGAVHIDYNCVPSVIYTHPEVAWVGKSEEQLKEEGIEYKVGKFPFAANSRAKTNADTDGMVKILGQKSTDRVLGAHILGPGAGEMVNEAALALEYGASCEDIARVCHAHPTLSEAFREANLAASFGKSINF
# PSMB5 = target: T2, PSMB5 (Homo sapiens, UniProt P28074); assay: microscale thermophoresis; assay type: binding; settings: unmodified bortezomib; positive control (protein of the control panel not named in the legend); isolated recombinant subunit
# T2 construct: recombinant isolated subunit, customized by DetaiBio; His-tag labelling for MST implies His tag
# T2 sequence (P28074 60-263): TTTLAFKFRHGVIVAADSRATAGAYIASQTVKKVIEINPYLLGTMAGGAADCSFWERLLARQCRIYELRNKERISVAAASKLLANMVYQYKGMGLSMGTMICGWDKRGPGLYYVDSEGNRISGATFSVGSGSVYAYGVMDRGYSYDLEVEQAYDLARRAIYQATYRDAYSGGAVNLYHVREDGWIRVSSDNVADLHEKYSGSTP
smiles,measurement,setting,value
CC(C)C[C@H](NC(=O)[C@H](Cc1ccccc1)NC(=O)c1cnccn1)B(O)O [bortezomib],KD,[1],1.38 ± 0.51 E-7
same,KD,PSMB5,binding affinity of BTZ to DLD and to PSMB5
